This note sets out measurements from patent US12583851B2, “Heteroaryl-substituted pyrazine derivatives as pesticides” (Elanco Animal Health GmbH, priority 2019, dated 2026).

What all share (format): in vivo
Assay [1] has as its system fall armyworm larvae (Spodoptera frugiperda). As to the kind of experiment: Spodoptera frugiperda spray test. The following applies: 168 h, maize leaf sections, after 7 days. How it is done: Spodoptera fruaiperda—Spray Test
Solvent: 78.0 parts by weight acetone • 1.5 parts by weight dimethylformamide
(§1) Emulsifier: alkylarylpolyglycol ether
To produce a suitable preparation of active compound, 1 part by weight of active compound is mixed with the stated amount of solvents and is diluted with water, containing an emulsifier concentration of 1000 ppm, to the desired concentration. Further test concentrations are prepared by dilution with emulsifier containing water.
Maize (Zea mays) leaf sections are sprayed with a preparation of the active ingredient of the desired concentration. Once dry, the leaf sections are infested with fall armyworm larvae (Spodoptera frugiperda).
After 7 days mortality in % is determined. 100% means all caterpillars have been killed and 0% means none of the caterpillars have been killed.

Assay [2] has as its system Rhipicephalus (Boophilus) microplus larvae (strain Parkhurst, resistant against synthetic pyrethroids). As to the kind of experiment: Rhipicephalus (Boophilus) microplus in-vitro contact test, larval cattle tick. The following applies: after 48 hours, read-out: efficacy (larvae dead or moribund); for pest or weed control at 1 µg/cm2, 100 g/ha: 1 μg/cm^2 (=100 g/ha); for pest or weed control at 5 µg/cm2, 500 g/ha: 5 μg/cm^2 (=500 g/ha). The method, then:
Rhipicephalus (Boophilus) microplus—In-Vitro Contact Tests Larval Cattle Tick (Strain Parkhurst, Resistant Against Synthetic Pyrethroids)
9 mg compound is solved in 1 mL acetone and diluted with acetone to the desired concentration. […] the test solution is filled in 25 mL glass test tubes and homogeneously distributed on the inner walls by rotation and tilting on a shaking device (2 h at 30 rpm). With a compound concentration of 900 ppm, an inner surface of 44.7 cm^2 and a homogeneous distribution, a dose of 5 μg/cm^2 is achieved.
After the solvent has evaporated, each test tube is filled with 20-50 cattle tick larvae (Rhipicephalus microplus), closed with a perforated lid and incubated in a horizontal position at 85% relative humidity and 27° C. in an incubator. After 48 hours efficacy is determined. The larvae are patted on the ground of the tubes and negative geotactic behaviour is recorded.
An efficacy of 100% means all larvae are dead or moribund; 0% means no larvae are dead or moribund.

For assay [3], the system named is larvae of the banded cucumber beetle (Diabrotica balteata). As to the kind of experiment: Diabrotica balteata spray test. The conditions noted are these: 168 h, after 7 days, read-out: efficacy (seedling growth); for pest or weed control at 32 µg/disc, 100 g/ha: 100 g/ha (=32 μg/well); for pest or weed control at 6.4 µg/disc, 20 g/ha: 20 g/ha (=6.4 μg/well). How it is done: Diabrotica balteata—Spray Test
Solvent: 78.0 parts by weight of acetone • • 1.5 parts by weight of dimethylformamide
as §1
To produce a suitable preparation of active compound, 1 part by weight of active compound is mixed with the stated amount of solvent, and the concentrate is diluted with water, containing an emulsifier concentration of 1000 ppm, to the desired concentration. Further test concentrations are prepared by dilution with emulsifier containing water.
Soaked wheat seeds (Triticum aestivum) are placed in a multiple well plate filled with agar and some water and are incubated for 1 day to germinate (5 seeds per well). The germinated wheat seeds are sprayed with a test solution containing the desired concentration of the active ingredient. Afterwards each unit is infected with 10-20 larvae of the banded cucumber beetle (Diabrotica balteata).
After 7 days efficacy in % is determined. 100% means all the seedlings have grown up like in the untreated, uninfected control; 0% means none of the seedlings have grown.

Each structure is given as a SMILES string.

The mortality is the share of the test organisms that died. Low readings indicate a weak lethal effect, high ones a strong lethal effect. As to `CC(NC(=O)c1cc(Cl)cc(C(F)(F)F)c1)c1nccnc1-c1ccc(C(F)(F)F)cn1` (racemic) [Example I-46, (rac)-3-Chloro-5-(trifluoromethyl)-N-[1-{3-[5-(trifluoromethyl)pyridin-2-yl]pyrazin-2-yl}ethyl]benzamide], the mortality at 100 g/ha in assay [1] came out at 100%. Also, in assay [2], the pest or weed control at 1 µg/cm2, 100 g/ha amounted to 100% and the pest or weed control at 5 µg/cm2, 500 g/ha worked out at 100%. In assay [3], the pest or weed control at 32 µg/disc, 100 g/ha turned out to be 100%.
Turning to `CC(NC(=O)c1cc(C(F)(F)F)cc(C(F)(F)F)c1)c1nccnc1-c1ncc(C(=O)N(C)CC2CC2)s1` (racemic) [Example I-51, (rac)-2-(3-{1-[3,5-Bis(trifluoromethyl)benzamido]ethyl}pyrazin-2-yl)-N-(cyclopropylmethyl)-N-methyl-1,3-thiazole-5-carboxamide], the mortality at 100 g/ha in assay [1] stood at 100%. For the same compound, in assay [2], the pest or weed control at 1 µg/cm2, 100 g/ha turned out to be 90% and the pest or weed control at 5 µg/cm2, 500 g/ha amounted to 90%. In assay [3], the pest or weed control at 6.4 µg/disc, 20 g/ha turned out to be 100% and the pest or weed control at 32 µg/disc, 100 g/ha was found to be 100%.
`CC(NC(=O)c1cc(C(F)(F)F)cc(C(F)(F)F)c1)c1nccnc1-c1ncc(C(=O)N(C)C)s1` (racemic) [Example I-69, (rac)-2-(3-{1-[3,5-Bis(trifluoromethyl)benzamido]ethyl}pyrazin-2-yl)-N,N-dimethyl-1,3-thiazole-5-carboxamide] yielded a mortality at 100 g/ha in assay [1] of 100%. In assay [2], the pest or weed control at 1 µg/cm2, 100 g/ha was found to be 100% and the pest or weed control at 5 µg/cm2, 500 g/ha stood at 100%. In addition, in assay [3], the pest or weed control at 6.4 µg/disc, 20 g/ha came out at 100% and the pest or weed control at 32 µg/disc, 100 g/ha is 100%.
In assay [1], `CC(NC(=O)c1cc(Br)cc(OC(F)(F)F)c1)c1nccnc1-c1ncc(C(=O)N(C)CC#N)s1` (racemic) [Example I-75, (rac)-2-(3-{1-[3-Bromo-5-(trifluoromethoxy)benzamido]ethyl}pyrazin-2-yl)-N-(cyanomethyl)-N-methyl-1,3-thiazole-5-carboxamide] registered a mortality at 100 g/ha of 100%. Further, in assay [2], the pest or weed control at 1 µg/cm2, 100 g/ha came to 90% and the pest or weed control at 5 µg/cm2, 500 g/ha came to 90%. The pest or weed control at 32 µg/disc, 100 g/ha in assay [3] was 100%.
Regarding `CC(NC(=O)c1cc(Br)cc(OC(F)(F)F)c1)c1nccnc1-c1ncc(C(=O)N(C)CC2CC2)s1` (racemic) [Example I-76, (rac)-2-(3-{1-[3-Bromo-5-(trifluoromethoxy)benzamido]ethyl}pyrazin-2-yl)-N-(cyclopropylmethyl)-N-methyl-1,3-thiazole-5-carboxamide], the mortality at 100 g/ha in assay [1] is 100%. Moreover, in assay [2], the pest or weed control at 1 µg/cm2, 100 g/ha turned out to be 100% and the pest or weed control at 5 µg/cm2, 500 g/ha worked out at 100%. For the same compound, in assay [3], the pest or weed control at 6.4 µg/disc, 20 g/ha is 100% and the pest or weed control at 32 µg/disc, 100 g/ha was determined as 100%.
The compound `CCN(C)C(=O)c1cnn(-c2nccnc2C(C)NC(=O)c2cc(C(F)(F)F)cc(C(F)(F)F)c2)c1` (racemic) [Example I-89, (rac)-1-(3-{1-[3,5-Bis(trifluoromethyl)benzamido]ethyl}pyrazin-2-yl)-N-ethyl-N-methyl-1H-pyrazole-4-carboxamide] came in with a mortality at 100 g/ha in assay [1] of 100%. Moreover, in assay [2], the pest or weed control at 1 µg/cm2, 100 g/ha is 100% and the pest or weed control at 5 µg/cm2, 500 g/ha was 100%. In assay [3], the pest or weed control at 6.4 µg/disc, 20 g/ha amounted to 100% and the pest or weed control at 32 µg/disc, 100 g/ha was found to be 100%.
On to `CC(NC(=O)c1cc(C(F)(F)F)cc(C(F)(F)F)c1)c1nccnc1-n1cc(C(=O)N2CCOCC2)cn1` (racemic) [Example I-90, N-[(rac)-1-{3-[4-(Morpholine-4-carbonyl)-1H-pyrazol-1-yl]pyrazin-2-yl}ethyl]-3,5-bis(trifluoromethyl)benzamide], for which the mortality at 100 g/ha in assay [1] was determined as 100%. For the same compound, in assay [2], the pest or weed control at 1 µg/cm2, 100 g/ha is 100% and the pest or weed control at 5 µg/cm2, 500 g/ha was found to be 100%. Moreover, the pest or weed control at 32 µg/disc, 100 g/ha in assay [3] was found to be 100%.
Take `CC(NC(=O)c1cc(C(F)(F)F)cc(C(F)(F)F)c1)c1nccnc1-n1cc(C(F)(F)F)cn1` (racemic) [Example I-92, (rac)-3,5-Bis(trifluoromethyl)-N-[1-{3-[4-(trifluoromethyl)-1H-pyrazol-1-yl]pyrazin-2-yl}ethyl]benzamide]: the mortality at 100 g/ha in assay [1] amounted to 100%. Further, in assay [2], the pest or weed control at 1 µg/cm2, 100 g/ha was determined as 100% and the pest or weed control at 5 µg/cm2, 500 g/ha came to 100%. For the same compound, in assay [3], the pest or weed control at 6.4 µg/disc, 20 g/ha worked out at 100% and the pest or weed control at 32 µg/disc, 100 g/ha was 100%.
The compound `CC(NC(=O)c1cc(C(F)(F)F)cc(C(F)(F)F)c1)c1nccnc1-n1cc(C#N)cn1` (racemic) [Example I-100, N-{(rac)-1-[3-(4-Cyano-1H-pyrazol-1-yl)pyrazin-2-yl]ethyl}-3,5-bis(trifluoromethyl)benzamide] yielded a mortality at 100 g/ha in assay [1] of 100%. Moreover, in assay [2], the pest or weed control at 1 µg/cm2, 100 g/ha came to 100% and the pest or weed control at 5 µg/cm2, 500 g/ha was determined as 100%. Besides, in assay [3], the pest or weed control at 6.4 µg/disc, 20 g/ha turned out to be 100% and the pest or weed control at 32 µg/disc, 100 g/ha amounted to 100%.
Consider `CC(NC(=O)c1cc(Br)cc(OC(F)(F)F)c1)c1nccnc1-n1cc(C#N)cn1` (racemic) [Example I-102, (rac)-3-Bromo-N-{1-[3-(4-cyano-1H-pyrazol-1-yl)pyrazin-2-yl]ethyl}-5-(trifluoromethoxy)benzamide], for which the mortality at 100 g/ha in assay [1] was determined as 100%. In assay [2], the pest or weed control at 1 µg/cm2, 100 g/ha came out at 90% and the pest or weed control at 5 µg/cm2, 500 g/ha is 90%. In addition, in assay [3], the pest or weed control at 6.4 µg/disc, 20 g/ha was 100% and the pest or weed control at 32 µg/disc, 100 g/ha was 100%.
The compound `CC(NC(=O)c1cc(Br)cc(C(F)(F)F)c1)c1nccnc1-n1cc(C#N)cn1` (racemic) [Example I-113, (rac)-3-Bromo-N-{1-[3-(4-cyano-1H-pyrazol-1-yl)pyrazin-2-yl]ethyl}-5-(trifluoromethyl)benzamide] yielded a mortality at 100 g/ha in assay [1] of 100%. Also, in assay [2], the pest or weed control at 1 µg/cm2, 100 g/ha came to 100% and the pest or weed control at 5 µg/cm2, 500 g/ha was found to be 100%. In addition, in assay [3], the pest or weed control at 6.4 µg/disc, 20 g/ha amounted to 100% and the pest or weed control at 32 µg/disc, 100 g/ha stood at 100%.
For the compound `CC(NC(=O)c1cc(OC(F)F)cc(C2CC2)c1)c1nccnc1-c1ncc(C(=O)N(C)CC#N)s1` (racemic) [Example I-142, (rac)-N-(Cyanomethyl)-2-(3-{1-[3-cyclopropyl-5-(difluoromethoxy)benzamido]ethyl}pyrazin-2-yl)-N-methyl-1,3-thiazole-5-carboxamide], the mortality at 100 g/ha in assay [1] amounted to 100%. Further, the pest or weed control at 32 µg/disc, 100 g/ha in assay [3] amounted to 100%.
The compound `CCN(C)C(=O)c1cnc(-c2nc(C)cnc2C(C)NC(=O)c2cc(C(F)(F)F)cc(C(F)(F)F)c2)s1` (racemic) [Example I-152, (rac)-2-(3-{1-[3,5-Bis(trifluoromethyl)benzamido]ethyl}-6-methylpyrazin-2-yl)-N-ethyl-N-methyl-1,3-thiazole-5-carboxamide] yielded a mortality at 100 g/ha in assay [1] of 100%. Besides, in assay [3], the pest or weed control at 6.4 µg/disc, 20 g/ha is 100% and the pest or weed control at 32 µg/disc, 100 g/ha was found to be 100%.
In assay [1], `CC(NC(=O)c1cc(Br)cc(OC(F)(F)F)c1)c1nccnc1-c1ccc(Cl)cn1` (stereo not drawn) [Example I-22] yielded a mortality at 100 g/ha of 100%. In assay [3], the pest or weed control at 6.4 µg/disc, 20 g/ha was 100% and the pest or weed control at 32 µg/disc, 100 g/ha was determined as 100%.
